Reference: ChEMBL document CHEMBL4130444, “1,4-Naphthoquinones as inhibitors of Itch, a HECT domain-E3 ligase, and tumor growth suppressors in multiple myeloma” (Eur J Med Chem, 2017)

Assays:
[1] = system: MDA-MB-231; assay: Antiproliferative activity against human MDA-MB-231 cells incubated for 48 hrs by SRB assay; assay type: functional; details: MDA-MB-231, 48 h
[2] = system: HCT-116; assay: Antiproliferative activity against human HCT116 cells incubated for 48 hrs by SRB assay; assay type: functional; details: HCT-116, 48 h

| GI50 [1] | GI50 [2] | Structure (SMILES) |
| --- | --- | --- |
| > 10 µM | > 10 µM | O=C(Nc1ccccn1)c1ccc(CNC2=C(Cl)C(=O)c3ccccc3C2=O)cc1 |
| > 10 µM | > 10 µM | O=C(Nc1ccc2[nH]ccc2c1)c1ccc(CNC2=C(Cl)C(=O)c3ccccc3C2=O)cc1 |
